# Legend:
# [1] = tested on: Nannochloropsis; assay: hypochlorite kill curve: dry biomass productivity of laboratory Nannochloropsis cultures; format: cell-based; conditions: for Mean Productivity of Nannochloropsis: daily addition
# Experimental: Algal cultivation: 800 ml cultures are maintained in one inch thick Roux flasks with continuous magnetic stirring. Continuous illumination at 700 MicroEinsteins per meter squared per second is provided by four 54-watt T5 fluorescent bulbs rated with a correlated color temperature of […]. 1% CO2 is bubbled through […] rate sufficient to maintain a pH between 7.0 and 8.5. Photoautotrophic growth is maintained on UFM media formulated with artificial seawater (35 g/L Instant Ocean) containing 720 mg/L urea, 168 mg/L K2HPO4, 1.5 ml/L of a metals solution and 1 ml/L of a vitamin solution. The metals solution contains 39.7 g/L Fe(III)Cl3(6H2O), 30.0 g/L EDTA, 1.2 g/L MnCl2(4H2O), 0.08 g/L CoCl2(6H2O), 0.16 g/L ZnSO4(7H2O), 0.067 g/L CuSO4(5H2O), 0.023 g/L Na2MoO4(2H2O). The vitamins solution contains 0.001 g/L vitamin B12, 0.001 g/L Biotin, and 0.2 g/L Thiamine. Cultures are diluted by exchanging 400 ml of culture with fresh media every day at the same time. From the 400 ml that are removed, the dry biomass concentration is determined as below. Determination of culture biomass concentration: A sample of the culture between 0.5 and five milliliters is vacuum filtered through a pre-rinsed and pre-ashed Whatman GF/C glass microfiber filter disc. The cake is rinsed with twenty milliliters of 0.7M ammonium formate and dried for at least 2 hours at 105° C. The dried sample is weighed on an analytical balance and then ashed at 550° C. for at least 1 hour. The post ash weight is subtracted from the pre-ash weight and divided by the volume of the sample to get the ash-free dry biomass density in milligrams per milliliter. Given the dilution volume and the previous day's dry biomass concentration, the current day's dry biomass concentration can be used to establish the culture's dry biomass productivity in grams per liter per day. This productivity value can then be compared across different experimental conditions. For the hypochlorite kill curve, four cultures are measured for productivity as above, each of which receives a different dose of sodium hypochlorite with the fresh media that is added at dilution time. The final concentration of sodium hypochlorite following dilution for each of the four cultures is 0, 20, 40 and 80 milligrams per liter.
# [2] = tested on: Nannochloropsis; assay: outdoor open pond cultivation with chlorine addition (condition four)
# Experimental: Chlorine compounds may be added directly to the cultivation vessel. They may be added to the water of dilution of the cultivation vessel. In either case they may be added in solid (granular) form, liquid form, or as chlorine gas. In experiments performed by the inventors, the chlorine was added as a liquid (e.g., sodium hypochlorite). Typically, 10-12% solutions of sodium hypochlorite were diluted 10 to 100 fold and added directly to the cultivation reactor to achieve the initial concentration of sodium hypochlorite cited in each case.
# (§1) In the following examples, Nannochloropsis was grown in outdoor, open, ponds in Vero Beach, Fla. The climate in Vero Beach is semitropical, with mild winters and hot, humid summers. It is a challenging climate for keeping outdoor algal cultures stable and productive. The overnight warmth encourages predation by protozoa, rotifers, and crustaceans. The humidity allows the airborne transport of competing algae, and thus increases the rate of invasion. In some of the examples the techniques applied were successful in keeping Nannochloropsis as the dominant alga, at ninety-five percent (95%) to nearly one-hundred percent (100%) of the algal biomass, even when competitors and/or predators were intentionally introduced to the algae cultivation system. In some cases, predators were undetectable most of the time, even after they were intentionally introduced.
# Ten ponds (four 1.4 square meter, four 3 square meter, and two approximately 200 square meter) were used to test many conditions of salinity and chlorination over fifteen months. Not all of the conditions were run for that whole time period. The results from the following seven conditions are summarized below: 1) 35-36 PPT (full) seawater salinity, 2) 28-30 PPT (dilution of full seawater with fresh water in a ratio of 3:1), 3) 22-24 PPT (dilution of full seawater with fresh water in a ratio of about 2:1), 4) condition no. 3 with chlorine added to the pond every other day to an initial concentration of sodium hypochlorite of 3 ppm, 5) 10-12 PPT (dilution of full seawater with fresh water in a ratio of about 1:2), 6) 5-7 PPT (dilution of full seawater with fresh water in a ratio of about 1:6. and 7) about 1 PPT (dilution of seawater with fresh water in a ratio of about 1:40).
# Condition four was run from Oct. 4, 2007 until Jun. […] Commercial chlorine solutions were added to the algae cultivation systems every other day to obtain an initial concentration of 2.5-3 mg of sodium hypochlorite. […] The Nannochloropsis was cultivated without interruption and at greater than 95% dominance, throughout the entire cultivation period (over eight months). […] Species added included Tetraselmis and Dunaliella, along with amoeba, protozoa, and crustaceans. The Tetraselmis and Dunaliella cultures were decimated by the predators. The predators were not observable in the Nannochloropsis cultures after a few days.
# [3] = tested on: predators (amoeba, protozoa, and crustaceans); assay: outdoor open pond cultivation with chlorine addition: growth of introduced predators; conditions: 2.5-3 mg every other day, 22-24 PPT
# Experimental: as §1
# Ten ponds (four 1.4 square meter, four 3 square meter, and two approximately 200 square meter) were used to test many conditions of salinity and chlorination over fifteen months. Not all of the conditions were run for that whole time period. The results from the following seven conditions are summarized below: 1) 35-36 PPT (full) seawater salinity, 2) 28-30 PPT (dilution of full seawater with fresh water in a ratio of 3:1), 3) 22-24 PPT (dilution of full seawater with fresh water in a ratio of about 2:1), 4) condition no. […]
compound,measurement,setting,value
OCl [sodium hypochlorite],survival of Nannochloropsis cultures after extremely high exposure,"[1]; above 80 milligrams/liter, exposure not prolonged",recover
same,productivity of Nannochloropsis in the first two days following administration,[1]; at least 80 milligrams/liter,zero productivity
same,time for Nannochloropsis to recover after shock injection,"[1]; shock amount, initial concentration 40-80 milligrams/liter or higher",two to three
same,Mean Productivity of Nannochloropsis,[1]; sodium hypochlorite 20 Milligrams/Liter,570 Milligrams/Liter/Day
same,Mean Productivity of Nannochloropsis,[1]; sodium hypochlorite 40 Milligrams/Liter,460 Milligrams/Liter/Day
same,Mean Productivity of Nannochloropsis,[1]; sodium hypochlorite 80 Milligrams/Liter,0 Milligrams/Liter/Day
same,Nannochloropsis dominance throughout the cultivation period,"[2]; 2.5-3 mg every other day, 22-24 PPT, over eight months",greater than 95%
same,contamination versus non-chlorinated cultures at the same salinity,"[2]; 22-24 PPT, cooler months",no observable difference
same,contamination versus non-chlorinated cultures at the same salinity,"[2]; 22-24 PPT, warmer months of the year",less contamination than non-chlorinated cultures
same,culture stability over the run,"[2]; condition four, about 250 days",without stability problems
same,effect on productivity compared to condition three with no added chlorine,"[2]; initial concentration 2.5-3 mg every other day, salinity 22-24 PPT",often had no effect on productivity
same,growth of predators added to the chlorinated cultures,[3],No predators were able to grow

# Source: US8940340B2, “Systems and methods for maintaining the dominance of Nannochloropsis in an algae cultivation system” (Aurora Algae, Inc., priority 2009, dated 2015)
